How the values were obtained:
[1] = tested on: Total ATXN3 (tATXN3) protein; experiment: Endogenous Total ATXN3 (tATXN3) Protein Assay (MSD immunoassay of cell lysates); type: cell-based; conditions: average IC50, total ATXN3 protein in cell lysate after 48 h with compound (Table 1)
How it was run: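 Cells in DMEM/10% FBS were plated at 10,000 per well onto 7-point, 3.16-fold compound dilutions in duplicate for 48 h at 37° C, then lysed. Total ATXN3 in lysates was measured by MSD sandwich immunoassay: mouse anti-ATXN3 capture, rabbit anti-ATXN3 detection, SULFO-TAG anti-rabbit. Average IC50 was reported in star bins.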

ATXN3 pre-mRNA = experiment: RT-qPCR Assay to Quantify Exon 4 Skipping in ATXN3 pre-mRNA in Cells; type: cell-based; conditions: percent exon 4 skipping in ATXN3 pre-mRNA, RT-qPCR of cell lysates; average IC50
How it was run: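 Cells plated at 10,000/well onto a 7-point, 3.16-fold DMSO dilution series (duplicates), incubated 24 h at 37 °C, then lysed. Exon 4 skipping measured by one-step RT-qPCR (48 °C RT, 40 cycles); IC50 interpolated from dose-response fit of percent skipping.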

Molecule	IC50 [1] [nM]	IC50 (ATXN3 pre-mRNA) [nM]
Cc1c([C@@H]2CCCCC[C@H]2N)sc2c(NCc3cccs3)cc(Cl)nc12 [Compound 83, 2-((1R,2R)-2-aminocycloheptyl)-5-chloro-3-methyl-N-(thiophen-2-ylmethyl)thieno[3,2-b]pyridin-7-amine]	> 1000	> 1000
N[C@H]1CC=CC[C@@H]1c1sc2c(NCc3cccs3)cc(Cl)nc2c1Cl [Compound 196, 2-((1S,6S)-6-aminocyclohex-3-en-1-yl)-3,5-dichloro-N-(thiophen-2-ylmethyl)thieno[3,2-b]pyridin-7-amine]	≤ 30	≤ 30
N[C@H]1CCCO[C@@H]1c1sc2c(NCc3cccs3)cc(Cl)nc2c1Br [Compound 56, 2-((2S,3S)-3-aminotetrahydro-2H-pyran-2-yl)-3-bromo-5-chloro-N-(thiophen-2-ylmethyl)thieno[3,2-b]pyridin-7-amine]	300 to 1000	30 to 300
C#Cc1c([C@H]2CCCC[C@@H]2N)sc2c(NCc3ccccc3F)cc(Cl)nc12 [Compound 311, 2-((1S,2S)-2-aminocyclohexyl)-5-chloro-3-ethynyl-N-(2-fluorobenzyl)thieno[3,2-b]pyridin-7-amine]	30 to 300	30 to 300
N[C@@H]1CCCCC[C@H]1c1sc2c(NCc3cccs3)cc(Cl)nc2c1Cl [Compound 78, 2-((1R,2R)-2-aminocycloheptyl)-3,5-dichloro-N-(thiophen-2-ylmethyl)thieno[3,2-b]pyridin-7-amine]	> 1000	> 1000
N[C@H]1CC=CC[C@@H]1c1sc2c(NCc3ccsc3)cc(Cl)nc2c1Br [Compound 217, 2-((1S,6S)-6-aminocyclohex-3-en-1-yl)-3-bromo-5-chloro-N-(thiophen-3-ylmethyl)thieno[3,2-b]pyridin-7-amine]	≤ 30	≤ 30
N[C@H]1[C@H](O)CCC[C@@H]1c1sc2c(NCc3cccs3)cc(Cl)nc2c1Cl [Compound 298, (1R,2R,3S)-2-amino-3-(3,5-dichloro-7-((thiophen-2-ylmethyl)amino)thieno[3,2-b]pyridin-2-yl)cyclohexan-1-ol]	30 to 300	30 to 300
Cc1c([C@@H]2CC=CC[C@H]2N)sc2c(NCc3ccco3)cc(Cl)nc12 [Compound 382, 2-((1R,6R)-6-aminocyclohex-3-en-1-yl)-5-chloro-N-(furan-2-ylmethyl)-3-methylthieno[3,2-b]pyridin-7-amine]	30 to 300	30 to 300
N[C@@H]1CC=CC[C@H]1c1sc2c(NCc3cccs3)nc(Cl)nc2c1Cl.N[C@H]1CC=CC[C@@H]1c1sc2c(NCc3cccs3)nc(Cl)nc2c1Cl (mixture of isomers) [Compound 397, 6-((1R,6R)-6-aminocyclohex-3-en-1-yl)-2,7-dichloro-N-(thiophen-2-ylmethyl)thieno[3,2-d]pyrimidin-4-amine and 6-((1S,6S)-6-aminocyclohex-3-en-1-yl)-2,7-dichloro-N-(thiophen-2-ylmethyl)thieno[3,2-d]pyrimidin-4-amine]	300 to 1000	300 to 1000
N[C@H]1CCCO[C@H]1c1sc2c(NCc3cccs3)cc(Cl)nc2c1Cl [Compound 19, 2-((2R,3S)-3-aminotetrahydro-2H-pyran-2-yl)-3,5-dichloro-N-(thiophen-2-ylmethyl)thieno[3,2-b]pyridin-7-amine]	30 to 300	30 to 300
Cc1c([C@H]2CCCCC[C@H]2N)sc2c(NCc3cccs3)cc(Cl)nc12 [Compound 84, 2-((1S,2R)-2-aminocycloheptyl)-5-chloro-3-methyl-N-(thiophen-2-ylmethyl)thieno[3,2-b]pyridin-7-amine]	> 1000	> 1000
2-((1R,6R)-6-aminocyclohex-3-en-1-yl)-5-chloro-3-methyl-N-(thiophen-2-ylmethyl)thieno[3,2-b]pyridin-7-amine and 2-((1S,6S)-6-aminocyclohex-3-en-1-yl)-5-chloro-3-methyl-N-(thiophen-2-ylmethyl)thieno[3,2-b]pyridin-7-amine [Compound 367]	30 to 300	30 to 300
Cc1c([C@H]2CC=CC[C@@H]2N)sc2c(NCc3ccco3)cc(C#N)nc12 [Compound 289, 2-((1S,6S)-6-aminocyclohex-3-en-1-yl)-7-((furan-2-ylmethyl)amino)-3-methylthieno[3,2-b]pyridine-5-carbonitrile]	30 to 300	30 to 300
2-((2R,3R)-3-aminotetrahydro-2H-pyran-2-yl)-3-bromo-5-chloro-1-(difluoromethyl)-N-(thiophen-2-ylmethyl)-1H-pyrrolo[3,2-b]pyridin-7-amine and 2-((2S,3S)-3-aminotetrahydro-2H-pyran-2-yl)-3-bromo-5-chloro-1-(difluoromethyl)-N-(thiophen-2-ylmethyl)-1H-pyrrolo[3,2-b]pyridin-7-amine [Compound 224]	≤ 30	≤ 30
Cc1c([C@@H]2CCCCCC[C@H]2N)sc2c(NCc3cccs3)cc(Cl)nc12 [Compound 92, 2-((1R,2R)-2-aminocyclooctyl)-5-chloro-3-methyl-N-(thiophen-2-ylmethyl)thieno[3,2-b]pyridin-7-amine]	> 1000	> 1000
3-bromo-5-chloro-2-((1R,2R)-2-(methylamino)cyclohexyl)-N-(thiophen-2-ylmethyl)thieno[3,2-b]pyridin-7-amine and 3-bromo-5-chloro-2-((1S,2S)-2-(methylamino)cyclohexyl)-N-(thiophen-2-ylmethyl)thieno[3,2-b]pyridin-7-amine [Compound 375]	30 to 300	30 to 300
N[C@H]1CC=C[C@@H](O)[C@@H]1c1sc2c(NCc3cccs3)cc(Cl)nc2c1Cl [Compound 377, (1R,5S,6R)-5-amino-6-(3,5-dichloro-7-((thiophen-2-ylmethyl)amino)thieno[3,2-b]pyridin-2-yl)cyclohex-2-en-1-ol]	30 to 300	30 to 300
N[C@@H]1COCC[C@H]1c1sc2c(NCc3ccccc3)cc(Cl)nc2c1Br.N[C@H]1COCC[C@@H]1c1sc2c(NCc3ccccc3)cc(Cl)nc2c1Br (mixture of isomers) [Compound 328, 2-((3R,4S)-3-aminotetrahydro-2H-pyran-4-yl)-N-benzyl-3-bromo-5-chlorothieno[3,2-b]pyridin-7-amine and 2-((3S,4R)-3-aminotetrahydro-2H-pyran-4-yl)-N-benzyl-3-bromo-5-chlorothieno[3,2-b]pyridin-7-amine]	30 to 300	30 to 300
N[C@@H]1[C@@H](O)C=CC[C@H]1c1sc2c(NCc3cccs3)cc(Cl)nc2c1Cl.N[C@H]1[C@H](O)C=CC[C@@H]1c1sc2c(NCc3cccs3)cc(Cl)nc2c1Cl (mixture of isomers) [Compound 127, (1R,5S,6R)-6-amino-5-(3,5-dichloro-7-((thiophen-2-ylmethyl)amino)thieno[3,2-b]pyridin-2-yl)cyclohex-2-en-1-ol and (1S,5R,6S)-6-amino-5-(3,5-dichloro-7-((thiophen-2-ylmethyl)amino)thieno[3,2-b]pyridin-2-yl)cyclohex-2-en-1-ol]	30 to 300	30 to 300
6-((1R,6R)-6-aminocyclohex-3-en-1-yl-2,2,3,4,5,5-d6)-2-chloro-N-(furan-2-ylmethyl)-7-methylthieno[3,2-d]pyrimidin-4-amine and 6-((1S,6S)-6-aminocyclohex-3-en-1-yl-2,2,3,4,5,5-d6)-2-chloro-N-(furan-2-ylmethyl)-7-methylthieno[3,2-d]pyrimidin-4-amine [Compound 297]	30 to 300	30 to 300
N[C@@H]1CCCCC[C@H]1c1sc2c(NCc3cccs3)cc(Cl)nc2c1Br [Compound 74, 2-((1R,2R)-2-aminocycloheptyl)-3-bromo-5-chloro-N-(thiophen-2-ylmethyl)thieno[3,2-b]pyridin-7-amine]	> 1000	> 1000
N[C@H]1CCCO[C@@H]1c1sc2c(NCc3ccccc3)cc(Cl)nc2c1I [Compound 136, 2-((2S,3S)-3-aminotetrahydro-2H-pyran-2-yl)-N-benzyl-5-chloro-3-iodothieno[3,2-b]pyridin-7-amine]	≤ 30	≤ 30
N[C@H]1CCCC[C@@H]1c1sc2c(NCc3cccs3)cc(Cl)nc2c1I [Compound 57, 2-((1S,2S)-2-aminocyclohexyl)-5-chloro-3-iodo-N-(thiophen-2-ylmethyl)thieno[3,2-b]pyridin-7-amine]	≤ 30	≤ 30
N[C@H]1CCCO[C@@H]1c1c(I)c2nc(Cl)nc(NCc3ccco3)c2n1C(F)F [Compound 225, 6-((2S,3S)-3-aminotetrahydro-2H-pyran-2-yl)-2-chloro-5-(difluoromethyl)-N-(furan-2-ylmethyl)-7-iodo-5H-pyrrolo[3,2-d]pyrimidin-4-amine]	≤ 30	≤ 30
N[C@@H]1CCCC[C@H]1c1sc2c(NCc3cccs3)cc(Cl)nc2c1I [Compound 58, 2-((1R,2R)-2-aminocyclohexyl)-5-chloro-3-iodo-N-(thiophen-2-ylmethyl)thieno[3,2-b]pyridin-7-amine]	> 1000	> 1000
N[C@H]1CCCO[C@@H]1c1sc2c(NCc3cccs3)cc(Cl)nc2c1C#CCO (mixture of isomers) [Compound 252, 3-(2-((2R,3R)-3-aminotetrahydro-2H-pyran-2-yl)-5-chloro-7-((thiophen-2-ylmethyl)amino)thieno[3,2-b]pyridin-3-yl)prop-2-yn-1-ol and 3-(2-((2S,3S)-3-aminotetrahydro-2H-pyran-2-yl)-5-chloro-7-((thiophen-2-ylmethyl)amino)thieno[3,2-b]pyridin-3-yl)prop-2-yn-1-ol]	30 to 300	≤ 30

From US20250382305A1 (PTC THERAPEUTICS, INC., priority 2022, published 2025)
